A value given as a limit tells only on which side of the number the result lay.

The values below come from US20140147410A1, “MICROBICIDE COMBINATIONS CONTAINING SILVER” (priority 2011, published 2014).

Holding throughout (type): cell-based
Assay [1] concerns Staphylococcus aureus ATCC# 6538. Nature of the assay: HRMIC synergy test, Gram positive bacteria. The settings on record: S. aureus, biocide alone. Here is the method: (§1) The combinations were evaluated for synergy by determining the synergy index (S.I.) of the combination. The Synergy index calculated is based on minimum inhibitory concentrations (MIC) of two biocides (A and B) alone and in combinations. The lower the S.I. value, the better the synergy. High Resolution Minimum Inhibitory Concentration (HRMIC) method was performed to determine the potential for synergy of the combinations. The tests organisms were gram negative bacteria (Pseudomonas aeruginosa), Gram positive bacteria (Staphylococcus aureus), yeast (Candida albicans) and mold (Aspergillus niger). Contact time for the bacteria was 24 and 48 hours, yeast was 48 and 72 hrs, 3 and 7 days for mold. The test was carried out in 96well microtiter plates. […] Ca/CA+Cb/CB=Synergy Index(“SI”) • CA=concentration of compound A in ppm, acting alone, which produced an end point (MIC of Compound A). • Ca=concentration of compound A in ppm, in the mixture, which produced an end point. • CB=concentration of compound B in ppm, acting alone, which produced an end point (MIC of Compound B). • Cb=concentration of compound B in ppm, in the mixture, which produced an end point. When the sum of Ca/CA and Cb/CB is greater than one, antagonism is indicated. […] [table] [table]

Assay [2] has as its system Candida albicans ATCC#10203. Nature of the assay: HRMIC synergy test, yeast. As to conditions: C. albicans, biocide alone. Here is the method: as §1
In assay [3] the test system is Pseudomonas aeruginosa ATCC # 15442. Nature of the assay: HRMIC synergy test, gram negative bacteria. As to conditions: Ps. aeruginosa, contact time 24 hrs, biocide alone. The procedure:
as §1

Assay [4] relates to Aspergillus niger ATCC# 16404. Nature of the assay: HRMIC synergy test, mold. The settings on record: A. niger, biocide alone. The procedure:
as §1

Take `Cc1ccc(S(=O)(=O)C(I)I)cc1` [DIMTS, diiodomethyl-p-tolylsulfone]: the “MIC alone (CA / CB)” value is 30 ppm AI in assay [1] (contact time 24 hrs); 400 ppm AI in assay [1] (contact time 48 hrs); 20 ppm AI in assay [2] (contact time 48 hrs); 30 ppm AI in assay [2] (contact time 72 hrs); over 1000 ppm AI in assay [3]; 0.3 ppm AI in assay [4] (contact time 3rd day). Besides, the “MIC alone (CA / CB)” value in assay [4] (contact time 7th day) is recorded as 0.5 ppm AI.
